One series deals with PGE2. The series is described as follows: Inhibition of PGE2 formation in rabbit articular chondrocytes stimulated with IL-1β (RIA). Format: cell-based. The settings on record: for IC50: Oryctolagus cuniculus, Chondrocyte. How it is done: (§1) a) The inhibitory activity on the formation of NO measured as NO2^− (nitrite) and PGE2 was studied in vitro on culture media of rabbit articular chondrocytes stimulated with the cytokine IL-1β (1 ng/ml) for 48 hours. For the preparation of the chondrocytes, the method described by Berenbaum et al. [FEBS Letters 340, 51-55 (1994)] was followed. Briefly, fragments of cartilage removed aseptically from the articular heads of rabbit shoulder, hip and knee were finely ground and digested at 37° C. in hyaluronidase, trypsin and collagenase solutions, giving, after filtration through sterile gauze and centrifugation at 600×g and suitable dilution with 10% DMEM-FCS 10%, a concentration per well of about 1×10^5 cells. The cells were maintained under these conditions until confluent (about 15 days), the medium being replaced every 3 days. At this point, the test products dissolved in the medium were added to each sample and, after 20 minutes, 350 μl of IL-1β were added, to give a final concentration of 1 ng/ml. The stimulation lasted 48 hours at 37° C. (incubation in air/7% CO2). A nitrite assay was subsequently performed on the cell supernatant, as described by Green et al. [Anal. Biochem. 126, 131-138 (1982)], and of PGE2 by RIA assay. The results obtained are shown in Table 3, in which is given, for a number of the compounds that are the subject of the invention and that are already illustrated in Table 1, the IC50, i.e. the concentration (micromolar) of antagonist capable of inhibiting the formation of nitrites and PGE2 by 50% relative to the control group, i.e. relative to the cells stimulated with IL-1β but without addition of antagonists.

Series [1] has as its system rabbit articular chondrocytes. Kind of series: Cellular toxicity on rabbit articular chondrocytes. Format: cell-based. The settings on record: noted beside IN in Table 3. How it is done: as §1
The subject of series [2] is rat paw injected with Zymosan. Kind of series: Zymosan-induced paw oedema in rats. Format: in vivo. The settings on record: for anti-inflammatory and anti-hyperalgesic action (in words): Zymosan, administered orally, L-NAME up to maximum dose 50 mg/kg; for Anti-inflammatory activity (oedema) ED30 / Mean (Oedema + Analgesia) ED30: os, 0-6 hours; for Anti-inflammatory activity (oedema) ED30: dose reducing volume increase by 30%; for Mean (Oedema + Analgesia) ED30: mean of oedema and analgesia ED30. The procedure:
(§2) This is a phlogogenic agent, consisting of a protein-glycoside complex, extracted from the cell walls of raw yeast, which is capable of inducing rapid degranulation of neutrophils, an increase in the production of TNF-α, interleukin-1 (IL-1), IL-6 and stimulation of NO generation by monocytes and macrophages (ZymosaN:Merck Index XIII ed. No. 10250, p. 1818).
(§3) The experiments consisted of sub-plantar intradermal injection into the animal of 4 mg of Zymosan suspended in 100 μl of sterile physiological solution, while the test compounds were administered orally 30 minutes before injection of the phlogogenic agent.
(§4) Measurement of the inflammation of the injected paw and of the consequent hyperalgesic effects was performed 2, 4 and 6 hours after the administration of Zymosan. The oedema was evaluated as the increase in volume of the injected paw within the period 0-6 hours, relative to the initial value of the volume of the paw, i.e. before the injection of Zymosan (basal value).
The measurements of the variation of the volume of the paw were recorded using a hydroplethysmometer (Mod. 7150, Basile, Italy), which consists of two plastic cuvettes containing a surfactant liquid, the larger one being used for immersion of the paw, connected to the smaller one which contains a transducer capable of recording small displacements of volume of the liquid used for the measurement. The paw is immersed in the cuvettes up to the tibiotarsal joint. The volume of liquid displaced by the paw indicates the magnitude of the inflammation.
For each test compound, at least three doses were used (generally 10, 20 and 40 mg/kg) with at least five animals per group×dose, so as to be able to calculate an ED30, i.e. the dose in mg/kg capable of reducing by 30% the Zymosan-induced volume increase, relative to the group of control animals, i.e. animals injected only with the phlogogenic agent and treated orally with distilled water.

The subject of series [3] is formation of NO measured as NO2^− (nitrite). Kind of series: Inhibition of NO (nitrite) formation in rabbit articular chondrocytes stimulated with IL-1β. To be noted: Oryctolagus cuniculus, Chondrocyte. Format: cell-based. How it is done: as §1
The next series has as its system IL-6. Kind of series: Inhibition of IL-6 expression (mRNA) in SW 1353 cells stimulated with IL-1β, Real Time PCR. Format: cell-based. The settings on record: Homo sapiens, SW1353; SW 1353 cells stimulated for 6 hours with IL-1β. The text has this:
In practice, the RNA extracted from the cells was back-transcribed to c-DNA by means of a thermocycler (BioRad—“iCycler”) and subsequently amplified via the Real Time PCR technique using a probe and a primer specific for IL-6, from the company Applied Biosystem, and the thermocycler 7000 Sequence Detection System (Applied Biosystem).
The capacity […] may be considered as large, since the increase in the expression of this cytokine is associated with the physiopathology of various human diseases, for instance Crohn's disease, as described previously.
On the technique in general: Real-time PCR tracks product formation cycle by cycle.

Series [4] deals with rat paw injected with Zymosan. The series is described as follows: Zymosan-induced mechanical hyperalgesia in rats (Randall-Selitto). Format: in vivo. To be noted: os, 0-6 hours, dose increasing pain threshold by 30%. How it is done:
as §2, §3, §4
The hyperalgesia induced by the intradermal administration of Zymosan was evaluated on these animals and at the same times described previously for the evaluation of the oedema, using the Randall-Selitto method [Arch. Int. Pharmacodyn. 111, 409 (1957)].
When the animal makes a noise following the pain stimulus, the operator blocks the punch and records the force, expressed in grams, which was applied to the paw (the cut-off value is 500 grams). The difference in the meal chanical pain threshold between the basal value (generally about 230-250 grams) and that recorded at the indicated times after injection of the phlogogenic agent, generally 130-140 g for the control animals 6 hours after injection of the phlogogenic agent, is defined as mechanical hyperalgesia. In this case also, an ED30 was calculated, i.e. the dose in mg/kg capable of increasing the pain threshold by 30% (meal chanical hyperalgesia) in the animals treated with the test compounds relative to the group of control animals.

Where [5] appears, read: rabbit articular chondrocytes, IL-1β 1 ng/ml, 48 hours, RIA, read-out: Inhibition % IC50 PGE2.
Where [6] appears, read: rabbit articular chondrocytes, IL-1β 1 ng/ml, 48 hours, RIA.
[7] abbreviates: rabbit articular chondrocytes, IL-1β 1 ng/ml, 48 hours, nitrite in supernatant, read-out: Inhibition % IC50 NO.
Setting [8] is: rabbit articular chondrocytes stimulated with IL-1β, read-out: IC50, formation of PGE2.

Like-named read-outs stand apart in the source and are kept apart here.

In general, IC50 refers to the concentration that inhibits the measured activity by half. A word on the melting point: it is the temperature, or range, at which the solid turns liquid.

In the case of `CC(=N)Nc1ccc2nc(-c3ccc(Cl)cc3)sc2c1` [Compound 3, N-[2-(4-chlorophenyl)benzothiazol-6-yl]acetamidine], the melting point was in the range of 212.2 to 213.5 °C. Also, the IC50 with PGE2 (setting [5]) is 1900 nM. Besides, in series [1], the “Tox = cellular toxicity (concentration)” value was found to be 30 µM.
For `CC(=N)Nc1ccc2c(c1)cc(-c1ccccc1)n2C` [Compound 6, N-(1-methyl-2-phenyl-1H-indol-5-yl)acetamidine], the melting point fell in the range of 184.6 to 185.8 °C. Moreover, in the series with PGE2 (setting [6]), the “Inhibition % IC50 PGE2” value is given as “IN (IN = <25% inhibitory activity at 30 × 10^−6M)”. Besides, in series [1], the “Tox = cellular toxicity (concentration)” value stood at 30 µM.
The molecule `CC(=N)Nc1ccc2nc(-c3ccccc3)ccc2c1` [Compound 8, N-(2-phenylquinol-6-yl)acetamidine] displayed a melting point of 143 to 144.4 °C. Also, the IC50 in the series with PGE2 (setting [5]) came to 2300 nM. In addition, in series [2], the “anti-inflammatory and anti-hyperalgesic action (in words)” value is “powerful anti-inflammatory and anti-hyperalgesic action”; the “Anti-inflammatory activity (oedema) ED30” value is reported as 19.8 mg/kg; the “Mean (Oedema + Analgesia) ED30” value turned out to be 15.8 mg/kg. In addition, in series [3] (setting [7]), the IC50 came out at 47900 nM. In the series with IL-6, this molecule had an IC50 of 1500 to 6000 nM. Further, the “Analgesic activity (mechanical anti-hyperalgesia) ED30” value (from here on “Analgesic activity”) in series [4] came to 11.8 mg/kg.
In turn, `CC(=N)Nc1ccc2sc(-c3ccccc3)nc2c1` [Compound 9, N-(2-phenylbenzothiazol-5-yl)acetamidine] showed a melting point of 177 to 178 °C. Further, the IC50 in the series with PGE2 (setting [5]) was 4200 nM. In addition, in series [2], the “anti-inflammatory and anti-hyperalgesic action (in words)” value is “powerful anti-inflammatory and anti-hyperalgesic action”; the “Anti-inflammatory activity (oedema) ED30” value was 33.9 mg/kg; the “Mean (Oedema + Analgesia) ED30” value was found to be 32.6 mg/kg. In addition, in series [3] (setting [7]), the half-maximal inhibitory concentration (IC50) is 18000 nM. Also, the IC50 with IL-6 is 1500 to 6000 nM. Further, the “Analgesic activity” value in series [4] is given as 31.3 mg/kg.
As for `COc1ccccc1-c1nc2cc(NC(C)=N)ccc2s1` [Compound 10, N-[2-(2-methoxyphenyl)benzothiazol-5-yl]acetamidine], the melting point fell in the range of 163 to 165 °C. Further, the IC50 in the series on PGE2 (setting [5]) was found to be 5900 nM. The “Tox = cellular toxicity (concentration)” value in series [1] turned out to be 100 µM.
For `COc1ccc(-c2nc3cc(NC(C)=N)ccc3s2)cc1` [Compound 15, N-[2-(4-methoxyphenyl)benzothiazol-5-yl]acetamidine], the melting point lay within 203 to 204.7 °C. The IC50 with PGE2 (setting [5]) worked out at 7400 nM. In addition, the “Tox = cellular toxicity (concentration)” value in series [1] came out at 30 µM.
For the molecule `COc1ccc(-c2nc3cc(NC(C)=N)ccc3s2)c(OC)c1` [Compound 16, N-[2-(2,4-dimethoxyphenyl)benzothiazol-5-yl]acetamidine], the melting point fell in the range of 156.4 to 158.3 °C. The “Inhibition % IC50 PGE2” value in the series on PGE2 (setting [6]) was “IN (IN = <25% inhibitory activity at 30 × 10^−6M)”. Besides, the “Tox = cellular toxicity (concentration)” value in series [1] stood at 30 µM.
In turn, `COc1cccc(-c2nc3cc(NC(C)=N)ccc3s2)c1` [Compound 17, N-[2-(3-methoxyphenyl)benzothiazol-5-yl]acetamidine] displayed a melting point of 141.6 to 145.6 °C. Moreover, in the series on PGE2 (setting [5]), the IC50 amounted to 1300 nM. In addition, the “Tox = cellular toxicity (concentration)” value in series [1] was 30 µM.
In turn, `CC(=N)Nc1ccc2oc(-c3ccccc3)cc2c1` [Compound 28, N-(2-phenylbenzofuran-5-yl)acetamidine] showed a melting point of 204.8 to 205.9 °C. Also, the IC50 in the series with PGE2 (setting [8]) is 300 to 800 nM. For the same molecule, the IC50 in the series with PGE2 (setting [5]) worked out at 500 nM. In series [2], the “anti-inflammatory and anti-hyperalgesic action (in words)” value was “powerful anti-inflammatory and anti-hyperalgesic action”; the “Anti-inflammatory activity (oedema) ED30” value is recorded as 20.8 mg/kg; the “Mean (Oedema + Analgesia) ED30” value was determined as 22.6 mg/kg. Further, the IC50 in series [3] (rabbit articular chondrocytes stimulated with IL-1β, read-out: IC50, production of NO) fell in the range of 3000 to 8000 nM. For the same molecule, the half-inhibitory concentration (IC50) in series [3] (setting [7]) was 7800 nM. Further, the IC50 in the series on IL-6 lay in the range of 1500 to 6000 nM. The “Analgesic activity” value in series [4] is 24.4 mg/kg.
Turning to `CC(=N)Nc1ccc2oc(-c3ccc(Cl)cc3)nc2c1` [Compound 30, N-[2-(4-chlorophenyl)benzoxazol-5-yl]acetamidine], the melting point lay within 183.6 to 185.1 °C. The IC50 in the series with PGE2 (setting [8]) lay in the range of 300 to 800 nM. Further, in the series on PGE2 (setting [5]), the IC50 was 300 nM. In series [1], the “Tox = cellular toxicity (concentration)” value stood at 30 µM.

The record behind these values is patent publication US20050197331A1, “Novel anti-inflammatory and analgesic heterocyclic amidines that inhibit nitrogen oxide (NO) production” (ROTTAPHARM SPA, priority 2004, published 2005).
